Experimental data as given in paper PMC11003488 (Journal of Enzyme Inhibition and Medicinal Chemistry, 2023).
Several values for one entry are separate records, joined by “and”; a condition that tells them apart may be missing. Identical values can stand only once. Like-named read-outs stand apart in the source and are kept apart here.

Columns and labels:
UO-31 = assay: NCI-60 SRB growth inhibition, one-dose and five-dose; type: cell-based; details: Homo sapiens
NCI-H23 = assay: as above; type: cell-based; details: Homo sapiens
Renal cancer cell lines = assay: NCI-60 SRB growth inhibition, subpanel; type: cell-based, human; details: for GI50: Homo sapiens
MCF7 = assay: NCI-60 SRB growth inhibition, one-dose and five-dose; type: cell-based; details: Homo sapiens
[1] = system: Prostate cancer cell lines; assay: NCI-60 SRB growth inhibition, subpanel; type: cell-based, human; details: for GI50: Homo sapiens
EKVX = assay: NCI-60 SRB growth inhibition, one-dose and five-dose; type: cell-based; details: Homo sapiens
HCC-2998 = assay: as above; type: cell-based; details: Homo sapiens
Bax [2] = assay: Gene expression by RT-qPCR in HCT-116; details: HCT-116, 24 h
Bax [3] = assay: Protein level by ELISA assay in HCT-116; type: cell-based, human; details: HCT-116, IC50 of compound, 24 h, vs 0.1% DMSO
T-47D = assay: NCI-60 SRB growth inhibition, one-dose and five-dose; type: cell-based; details: Homo sapiens, T47D
TNF-α = assay: Gene expression by RT-qPCR in HCT-116; details: HCT-116, 24 h, IC50 of compound; vs 0.1% DMSO; 2^-ΔΔct
KM12 = assay: NCI-60 SRB growth inhibition, one-dose and five-dose; type: cell-based; details: Homo sapiens
CNS cancer cell lines = assay: NCI-60 SRB growth inhibition, subpanel; type: cell-based, human; details: for GI50: Homo sapiens
ACHN = assay: NCI-60 SRB growth inhibition, one-dose and five-dose; type: cell-based; details: Homo sapiens
[4] = system: Ovarian cancer cell lines; assay: NCI-60 SRB growth inhibition, subpanel; type: cell-based, human; details: for GI50: Homo sapiens
[5] = system: NCI 60-cell line panel (full panel); assay: NCI-60 SRB growth inhibition, full panel mean / MG-MID; type: cell-based, human; details: for GI50: Homo sapiens, 60 cell
UACC-257 = assay: NCI-60 SRB growth inhibition, one-dose and five-dose; type: cell-based; details: Homo sapiens
HCT-116 (colon cancer) [6] = assay: Apoptosis AV/PI assay by flow cytometry; type: cell-based, human; details: HCT-116, 24 h, IC50 of compound
Breast cancer cell lines = assay: NCI-60 SRB growth inhibition, subpanel; type: cell-based, human; details: for GI50: Homo sapiens
Colon cancer cell lines = assay: NCI-60 SRB growth inhibition, subpanel; type: cell-based, human; details: for GI50: Homo sapiens
SN12C = assay: NCI-60 SRB growth inhibition, one-dose and five-dose; type: cell-based; details: Homo sapiens
Melanoma cell lines = assay: NCI-60 SRB growth inhibition, subpanel; type: cell-based, human; details: for GI50: Homo sapiens
OVCAR-8 = assay: NCI-60 SRB growth inhibition, one-dose and five-dose; type: cell-based; details: Homo sapiens
Caspase-3 [7] = assay: Gene expression by RT-qPCR in HCT-116; details: HCT-116, 24 h, IC50 of compound; vs 0.1% DMSO; 2^-ΔΔct
NSCLC cell lines = assay: NCI-60 SRB growth inhibition, subpanel; type: cell-based, human; details: for GI50: Homo sapiens
Caspase-3 [8] = assay: Protein level by ELISA assay in HCT-116; type: cell-based, human; details: HCT-116, IC50 of compound, 24 h, vs 0.1% DMSO
[9] = system: WI-38 normal human fibroblast cells; assay: Cytotoxicity towards normal fibroblasts, safety index; type: cell-based; details: WI-38 versus cancer cell lines
[10] = as above; type: cell-based, human; details: human, WI-38 normal fibroblast cells
OVCAR-3 = assay: NCI-60 SRB growth inhibition, one-dose and five-dose; type: cell-based; details: Homo sapiens
HCT-15 = assay: as above; type: cell-based; details: Homo sapiens
Leukaemia cell lines = assay: NCI-60 SRB growth inhibition, subpanel; type: cell-based, human; details: for GI50: Homo sapiens
MDA-MB-231/ATCC = assay: NCI-60 SRB growth inhibition, one-dose and five-dose; type: cell-based; details: Homo sapiens
CAKI-1 = assay: as above; type: cell-based; details: Homo sapiens
HCT-116 (colon cancer) [11] = assay: Cell cycle analysis by PI flow cytometry; type: cell-based, human; details: HCT-116, 24 h, IC50 of compound
HCT-116 = assay: NCI-60 SRB growth inhibition, one-dose and five-dose; type: cell-based; details: Homo sapiens
SK-MEL-2 = assay: as above; type: cell-based; details: Homo sapiens
RPMI-8226 = assay: as above; type: cell-based; details: Homo sapiens
Human VEGFR-2 = Human VEGFR-2 (Homo sapiens, UniProt P35968); assay: VEGFR-2 inhibition assay; type: biochemical
[12] = read-out: percent growth inhibition

Sequence of Human VEGFR-2 (P35968 20-1356): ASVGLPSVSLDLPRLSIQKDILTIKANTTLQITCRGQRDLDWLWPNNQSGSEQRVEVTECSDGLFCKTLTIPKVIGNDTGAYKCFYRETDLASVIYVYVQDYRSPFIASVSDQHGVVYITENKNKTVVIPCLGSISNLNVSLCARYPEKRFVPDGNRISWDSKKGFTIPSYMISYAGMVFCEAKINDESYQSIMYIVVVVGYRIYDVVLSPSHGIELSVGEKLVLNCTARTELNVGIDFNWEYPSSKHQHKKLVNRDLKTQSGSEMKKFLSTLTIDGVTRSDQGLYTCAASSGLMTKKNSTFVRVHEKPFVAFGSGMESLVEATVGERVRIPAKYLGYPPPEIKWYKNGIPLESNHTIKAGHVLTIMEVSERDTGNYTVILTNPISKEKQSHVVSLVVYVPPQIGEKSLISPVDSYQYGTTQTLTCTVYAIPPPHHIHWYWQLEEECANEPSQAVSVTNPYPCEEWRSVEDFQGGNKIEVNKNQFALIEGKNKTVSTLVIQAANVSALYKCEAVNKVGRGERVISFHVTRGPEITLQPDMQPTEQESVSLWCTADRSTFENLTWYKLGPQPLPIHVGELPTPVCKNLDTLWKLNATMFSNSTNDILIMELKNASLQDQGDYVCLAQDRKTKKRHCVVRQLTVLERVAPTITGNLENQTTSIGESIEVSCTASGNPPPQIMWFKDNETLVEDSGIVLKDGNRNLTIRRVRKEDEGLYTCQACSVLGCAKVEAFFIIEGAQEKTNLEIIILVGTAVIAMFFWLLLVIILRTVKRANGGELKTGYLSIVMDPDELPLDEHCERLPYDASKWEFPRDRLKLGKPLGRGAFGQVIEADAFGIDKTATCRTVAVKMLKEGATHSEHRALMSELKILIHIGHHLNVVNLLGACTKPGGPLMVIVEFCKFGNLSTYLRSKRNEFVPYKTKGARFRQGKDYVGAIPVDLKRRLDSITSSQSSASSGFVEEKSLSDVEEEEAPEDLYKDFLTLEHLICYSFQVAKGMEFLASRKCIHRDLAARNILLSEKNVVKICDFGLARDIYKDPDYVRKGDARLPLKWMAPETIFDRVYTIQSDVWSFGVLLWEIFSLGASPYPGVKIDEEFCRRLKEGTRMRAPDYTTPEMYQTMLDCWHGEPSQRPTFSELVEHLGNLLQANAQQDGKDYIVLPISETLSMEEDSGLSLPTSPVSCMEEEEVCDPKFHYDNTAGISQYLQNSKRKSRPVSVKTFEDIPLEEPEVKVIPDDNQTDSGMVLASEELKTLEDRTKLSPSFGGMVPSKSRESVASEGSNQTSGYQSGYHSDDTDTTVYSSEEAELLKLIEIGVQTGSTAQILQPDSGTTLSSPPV

COc1ccc(CNc2cccc(C(=O)/C=C/c3ccc(NC(C)=O)cc3)c2)cc1OC [Compound 5h, (E)-N-(4–(3-(3-((3,4-dimethoxybenzyl)amino)phenyl)-3-oxoprop-1-en-1-yl)phenyl) acetamide]
GI50 (UO-31; UO-31): 3 µM | inhibition at 10 µM (UO-31; UO-31, read-out: percent growth inhibition): 160% | GI50 (NCI-H23; NCI-H23): 4.26 µM | inhibition at 10 µM (NCI-H23; NCI-H23, read-out: percent growth inhibition): 105% | GI50 (Renal cancer cell lines; read-out: GI50 MG-MID): 3.99 µM | GI50 (Renal cancer cell lines; read-out: MG-MID GI50): 3.99 µM | SI (Selectivity Index) (Renal cancer cell lines; full panel MG-MID / Renal Cancer subpanel MG-MID): 1.12 | GI50 (MCF7; MCF7): 2.54 µM | inhibition at 10 µM (MCF7; MCF7, read-out: percent growth inhibition): 119% | GI50 ([1]; read-out: GI50 MG-MID): 3.53 µM | GI50 ([1]; read-out: MG-MID GI50): 3.53 µM | SI (Selectivity Index) ([1]; full panel MG-MID / Prostatic Cancer subpanel MG-MID): 1.27 | GI50 (EKVX): 4.09 µM | inhibition at 10 µM (EKVX; [12]): 94.9% | GI50 (HCC-2998; HCC 2998): 3.3 µM | inhibition at 10 µM (HCC-2998; HCC 2998, read-out: percent growth inhibition): 176% | Bax gene expression fold change (Bax [2]; IC50 of compound, vs 0.1% DMSO, 2^-ΔΔct): 30.06 ± 3.4 fold | Bax/Bcl-2 ratio (Bax [2]; ratio of gene expression fold changes): 31.6 | Bax protein level (Bax [3]): 2.96 fold | GI50 (T-47D): 5.04 µM | inhibition at 10 µM (T-47D; [12]): 104% | TNF-α gene expression fold change (TNF-α): 2.2 fold and 2.20 ± 0.17 fold | GI50 (KM12; KM12): 1.94 µM | inhibition at 10 µM (KM12; KM12, read-out: percent growth inhibition): 159% | GI50 (CNS cancer cell lines; read-out: GI50 MG-MID): 5.22 µM | GI50 (CNS cancer cell lines; read-out: MG-MID GI50): 5.22 µM | SI (Selectivity Index) (CNS cancer cell lines; full panel MG-MID / CNS Cancer subpanel MG-MID): 0.86 | GI50 (ACHN): 2.07 µM | inhibition at 10 µM (ACHN; [12]): 162% | GI50 ([4]; read-out: GI50 MG-MID): 5.75 µM | GI50 ([4]; read-out: MG-MID GI50): 5.75 µM | SI (Selectivity Index) ([4]; full panel MG-MID / Ovarian Cancer subpanel MG-MID): 0.78 | GI50 ([5]; read-out: Full panel GI50 mean): 4.48 µM | GI50 ([5]; read-out: Full panel MG-MID GI50): 4.48 µM | Full panel Mean GI % ([5]; mean over NCI-60 panel, single dose 10 µM): 108.5% | GI50 (UACC-257; UACC-257): 9.28 µM | inhibition at 10 µM (UACC-257; UACC-257, read-out: percent growth inhibition): 61.5% | % Early apoptotic cells (LR) (HCT-116 (colon cancer) [6]): 0.24 ± 0.01% | % Late apoptotic cells (UL) (HCT-116 (colon cancer) [6]): 64.62 ± 10.1% | % Necrotic cells (UR) (HCT-116 (colon cancer) [6]): 2.25 ± 0.71% | % Viable cells (LL) (HCT-116 (colon cancer) [6]): 32.89 ± 3.8% | GI50 (Breast cancer cell lines; read-out: GI50 MG-MID): 2.91 µM | GI50 (Breast cancer cell lines; read-out: MG-MID GI50): 2.91 µM | SI (Selectivity Index) (Breast cancer cell lines; full panel MG-MID / Breast Cancer subpanel MG-MID): 1.54 | GI50 (Colon cancer cell lines; read-out: GI50 MG-MID): 3.24 µM | GI50 (Colon cancer cell lines; read-out: MG-MID GI50): 3.24 µM | SI (Selectivity Index) (Colon cancer cell lines; full panel MG-MID / Colon Cancer subpanel MG-MID): 1.38 | GI50 (SN12C): 2.48 µM | inhibition at 10 µM (SN12C; [12]): 135% | GI50 (Melanoma cell lines; read-out: GI50 MG-MID): 4.44 µM | GI50 (Melanoma cell lines; read-out: MG-MID GI50): 4.44 µM | SI (Selectivity Index) (Melanoma cell lines; full panel MG-MID / Melanoma subpanel MG-MID): 1.01 | GI50 (OVCAR-8; OVCAR-8): 2.97 µM | inhibition at 10 µM (OVCAR-8; OVCAR-8, read-out: percent growth inhibition): 95.7% | Caspase-3 gene expression fold change (Caspase-3 [7]): 0.002 fold | GI50 (NSCLC cell lines; read-out: GI50 MG-MID): 8.91 µM | GI50 (NSCLC cell lines; read-out: MG-MID GI50): 8.91 µM | SI (Selectivity Index) (NSCLC cell lines; full panel MG-MID / NSCLC subpanel MG-MID): 0.50 | caspase-3 protein level (Caspase-3 [8]): 43.12 fold | Safety index [9]: >1 | GI50 at 48 h [10]: > 100 µM | GI50 (OVCAR-3; OVCAR-3): 2.28 µM | inhibition at 10 µM (OVCAR-3; OVCAR-3, read-out: percent growth inhibition): 114% | GI50 (HCT-15; HCT-15): 1.8 µM | inhibition at 10 µM (HCT-15; HCT-15, read-out: percent growth inhibition): 125% | GI50 (Leukaemia cell lines; read-out: GI50 MG-MID): 2.36 µM | GI50 (Leukaemia cell lines; read-out: MG-MID GI50): 2.36 µM | SI (Selectivity Index) (Leukaemia cell lines; full panel MG-MID / leukaemia subpanel MG-MID): 1.90 | GI50 (MDA-MB-231/ATCC; MDA-MB-231): 2.84 µM | inhibition at 10 µM (MDA-MB-231/ATCC; MDA-MB-231, read-out: percent growth inhibition): 89.4% | GI50 (CAKI-1; CAKI-1): 3.15 µM | inhibition at 10 µM (CAKI-1; CAKI-1, read-out: percent growth inhibition): 56.4% | % G0-G1 (HCT-116 (colon cancer) [11]): 35.12 ± 3.5% | % G2M (HCT-116 (colon cancer) [11]): 3.21 ± 1.1% | % S (HCT-116 (colon cancer) [11]): 4.91 ± 1.1% | % SubG0-G1 (HCT-116 (colon cancer) [11]): 56.87 ± 7.7% | GI50 (HCT-116; HCT-116, HCT-116 (colon cancer), five-dose assay): 1.95 µM | GI50 (HCT-116; HCT-116, HCT-116, five-dose screening): 0.78 µM | inhibition at 10 µM (HCT-116; HCT-116, read-out: percent growth inhibition): 174% | GI50 (SK-MEL-2; SK-MEL-2): 10.6 µM | inhibition at 10 µM (SK-MEL-2; SK-MEL-2, read-out: percent growth inhibition): 53.7% | GI50 (RPMI-8226; RPMI-8226): 1.79 µM | inhibition at 10 µM (RPMI-8226; RPMI-8226, read-out: percent growth inhibition): 112% | IC50 (Human VEGFR-2): 0.31 ± 0.015 µM
